Test results: patent publication US20040023884A1, “Biologically active peptides from functional domains of bactericidal/permeability-increasing protein and uses thereof” (priority 1993, published 2004)
Read-outs that look alike come from different tables or passages of the source. Square brackets hold non-standard residues; d marks the D form. Ends that are not written are not given here. 1Nal = N[C@@H](Cc1cccc2ccccc12)C(=O)O; d1Nal = N[C@H](Cc1cccc2ccccc12)C(=O)O

Legend:
[1] = system: rough mutant E. coli J5 bacteria; experiment: Radial diffusion bactericidal assay, E. coli J5; format: cell-based; conditions: radial diffusion; for pmol added to well to achieve a 30 mm^2 bactericidal zone, E. coli J5: PROBIT analysis, E. coli J5 (rough); for bactericidal activity (in words): E. coli J5
Experimental: BPI proteolytic fragments produced according to Example 1 were screened for bactericidal effects using rough mutant E. coli J5 bacteria in a radial diffusion assay. Specifically, an overnight culture of E. coli J5 was diluted 1:50 into fresh tryptic soy broth and incubated for 3 hours at 37° C. to attain log phase growth of the culture. Bacteria were then pelleted at 3,000 rpm for 5 minutes in a Sorvall RT6000B centrifuge (Sorvall Instruments, Newton, Conn.). 5 mL of 10 mM sodium phosphate buffer (pH 7.4) was added and the preparation was re-pelleted. […] The bacteria were diluted to 4×10^6 CFU/mL in 10 mL of molten underlayer agarose (at approximately 45° C.) and inverted repeatedly to mix in 15 mL polypropylene tubes conventionally used for this purpose.
The entire contents of such tubes were then poured into a level square petri dish and distributed evenly by rocking the dish side-to-side. […] A series of wells were then punched into the hardened agarose using a sterile 3 mm punch attached to a vacuum apparatus. The punch was sterilized with 100% alcohol and allowed to air dry prior to use to avoid contaminating the bacterial culture.
5 or 10 μL of each of the BPI fragments were carefully pipetted into each well. As a negative control, dilution buffer (pH 8.3) was added to a separate well, and rBPI23 at concentrations of 5 μg/mL and 1 μg/mL were also added as positive controls. Each plate was incubated at 37° C. for 3 hours, and then 10 mL of molten overlayer agarose (at approximately 45° C.) was added into the level petri dish, allowed to harden and incubated overnight at 37° C. […] The bacterial zones were measured with a micrometer.

[2] = system: E. coli 0111:B4 (smooth) bacteria; experiment: Radial diffusion bactericidal assay, E. coli 0111:B4; format: cell-based; conditions: radial diffusion; PROBIT analysis; E. coli O111:B4 (smooth)
Staphylococcus aureus = experiment: Radial diffusion bactericidal assay, Staphylococcus aureus; format: cell-based; conditions: radial diffusion; PROBIT analysis; S. aureus
[3] = 3H-heparin binding assay (affinity and capacity); conditions: for Heparin Capacity: heparin bound at saturation; for cpm ^3H-Heparin bound: 100 picomoles of each fragment per well, saturating 3H-heparin 20 μg/mL, mean of duplicate wells ± range; for heparin binding capacity: direct heparin binding assay
Experimental: Briefly, each fragment was added to wells of a 96-well microtiter plate having a polyvinylidene difluoride membrane (Immunobilon-P, Millipore, Bedford, Mass.) disposed at the bottom of the wells. […] Positive control wells contained varying amounts of rBPI23. […] DuPont-NEN, Wilmington, Del.) were made in the blocking buffer and incubated in the BPI peptide-containing wells for one hour at 4° C. The unbound heparin was aspirated and the wells were washed three times with blocking buffer, dried and removed for quantitation in a liquid scintillation counter (Model 1217, LKB, Gaithersburg, Md.). Although BSA in the blocking buffer did show a low affinity and capacity to bind heparin, this was considered physiologically irrelevant and the background was routinely subtracted from the test compound signal.

[4] = read-out: Kd of heparin binding

Row | Substance | pmol added to well to achieve a 30 mm^2 bactericidal zone, E. coli J5 [1] | pmol added to well to achieve a 30 mm^2 bactericidal zone, E. coli O111:B4 [2] | pmol added to well to achieve a 30 mm^2 bactericidal zone, S. aureus (Staphylococcus aureus) | Heparin Capacity [3] | Kd ([3]; read-out: Heparin Affinity) | also measured
1 | KSKVGWLIQFFHKK [BPI.113] | 270.66 pmol | 8,671.73 pmol | b (no detectable activity up to 5 μg/well) | – | – | –
2 | IKISGKAβ-(1-naphthyl)KAAβ-(1-naphthyl)Aβ-(1-naphthyl)RFLK (IKISGK[1Nal]KA[1Nal][1Nal]RFLK) [BPI.122] | 179.89 pmol | 2,123.57 pmol | 2,631,667.24 pmol | – | – | –
3 | IKISGKWKAAARFLK [BPI.45] | 1,301.80 pmol | 4,849.00 pmol | – | 160.7 ng | 153 nM | –
4 | CIKISGKWKAQKRFLKC [BPI.65 (ox.)] | – | – | – | 190.6 ng | 160 nM | –
5 | BPI.65(Ox) (CIKISGKWKAQKRFLKC; not fully specified (bridges); also: oxidized) | 849.79 pmol | b (no detectable activity up to 5 μg/well) | 11,960.00 pmol | – | – | –
6 | KSKVGWLIQLAβ-(1-naphthyl)HKK (KSKVGWLIQL[1Nal]HKK) [BPI.109] | 308.60 pmol | 44,875.41 pmol | b (no detectable activity up to 5 μg/well) | – | – | –
7 | IKISGKWKAQERFLK [BPI.136] | 18,846.44 pmol | b (no detectable activity up to 5 μg/well) | b (no detectable activity up to 5 μg/well) | – | – | –
8 | 85-99: 15-mer pin-synthesized peptide corresponding to amino acids 85-99 of BPI, with cyclo(lysylprolyl) moiety on the carboxyl-terminus (IKISGKWKAQKRFLK-{cyclo(lysylprolyl)}; UniProt P17213 116-130, looked up, fragment) | – | – | – | – | – | bactericidal activity (in words) [1]: found to have bactericidal activity
9 | KSKVGA2-β-(1-naphthyl)LIQLFHKK (KSKVG[1Nal]LIQLFHKK; not fully specified; printed as KSKVGA2-β-(1-naphthyl)LIQLFHKK) [BPI.130] | 325.75 pmol | 4,377.92 pmol | b (no detectable activity up to 5 μg/well) | – | – | –
10 | KSKVGAD-β-(1-naphthyl)LIQLFHKK (KSKVG[d1Nal]LIQLFHKK) [BPI.129] | 1,685.10 pmol | b (no detectable activity up to 5 μg/well) | b (no detectable activity up to 5 μg/well) | – | – | –
11 | KSKVGWLIQLFWKK [BPI.107] | 384.67 pmol | 4,665.64 pmol | b (no detectable activity up to 5 μg/well) | – | – | –
12 | Aβ-(1-naphthyl)Aβ-(1-naphthyl)RFLKF ([1Nal][1Nal]RFLKF) [BPI.140] | 84.76 pmol | 605.34 pmol | 9,977.71 pmol | – | – | –
13 | IKISGKWKAAβ-(1-naphthyl)Aβ-(1-naphthyl)RFLK (IKISGKWKA[1Nal][1Nal]RFLK) [BPI.121] | 154.35 pmol | 1,856.40 pmol | 941,388.07 pmol | – | – | –
14 | SVHVHISKSKVGWLIQLFHKKIESALRNK [BPI.12] | 524.80 pmol | b (no detectable activity up to 5 μg/well) | – | 231.5 ng | 285 nM | –
15 | IKISGKWKAQKRWLK [BPI.141] | 2,809.51 pmol | b (no detectable activity up to 5 μg/well) | b (no detectable activity up to 5 μg/well) | – | – | –
16 | C3: CNBr fragment of rBPI23, residues 71-100 (VPNVGLKFSISNANIKISGKWKAQKRFLKM; CNBr fragment; UniProt P17213 102-131, looked up, fragment) | – | – | – | – | – | cpm ^3H-Heparin bound [3]: 81,655 ± 3,163 cpm

Row | Substance | pmol added to well to achieve a 30 mm^2 bactericidal zone, E. coli J5 [1] | pmol added to well to achieve a 30 mm^2 bactericidal zone, E. coli O111:B4 [2] | pmol added to well to achieve a 30 mm^2 bactericidal zone, S. aureus (Staphylococcus aureus) | Heparin Capacity [3] | Kd ([3]; read-out: Heparin Affinity) | also measured
17 | KSKVGWLIQLFHKW [BPI.108] | 661.05 pmol | 306,965.11 pmol | 1,413,131,872.57 pmol | – | – | –
18 | KSKVGWLISLFHKK [BPI.104] | 385.85 pmol | 1,376.42 pmol | 27,933.64 pmol | – | – | –
19 | KSKVGFLIQLFHKK [BPI.127] | 406.01 pmol | b (no detectable activity up to 5 μg/well) | b (no detectable activity up to 5 μg/well) | – | – | –
20 | C4: CNBr fragment of rBPI23, residues 101-111 (SGNFDLSIEGM; CNBr fragment; UniProt P17213 132-142, looked up, fragment) | – | – | – | – | – | cpm ^3H-Heparin bound [3]: 4,686 ± 4 cpm
21 | A3: Asp-N fragment of rBPI23, residues 39-56 (DSFKIKHLGKGHYSFYSM; UniProt P17213 70-87, looked up, fragment) | – | – | – | – | – | cpm ^3H-Heparin bound [3]: 8,664 ± 128 cpm
22 | KSKVWLIQLFHKK [BPI.11] | 638.30 pmol | b (no detectable activity up to 5 μg/well) | – | 290.5 ng | 744 nM | –
23 | Limulus anti-LPS factor [LALF, reference compound] | – | – | – | 195.3 ng | 1290 nM | heparin binding capacity [3]: 195.3 ng heparin/2 μg peptide; Kd [3, 4]: 1290 nM
24 | magainin II amide [reference compound] | – | – | – | 453.7 ng | 3170 nM | heparin binding capacity [3]: 437.7 ng heparin/2 μg peptide; Kd [3, 4]: 3170 nM
25 | Cecropin A (KWKLFKKIEKVGQNIRDGIIKAGPAVAVVGQATQIAK; ends and bridges not checked; UniProt P01507 27-63, looked up) [antibacterial peptide of lepidopteran insects (Sigma), reference compound] | – | – | – | 242.0 ng | 395 nM | heparin binding capacity [3]: 242 ng heparin/2 μg peptide; Kd [3, 4]: 395 nM
26 | A2: Asp-N fragment of rBPI23, residues 15-38 (DYASQQGTAALQKELKRIKIPDYS; Asp-N fragment; UniProt P17213 46-69, looked up, fragment) | – | – | – | – | – | cpm ^3H-Heparin bound [3]: 3,042 ± 162 cpm
27 | Polymyxin B peptide [PMB Peptide, reference compound] | – | – | – | 58.01 ng | 309 nM | heparin binding capacity [3]: 58.0 ng heparin/2 μg peptide
28 | C2: CNBr fragment of rBPI23, residues 57-70 (DIREFQLPSSQISM; CNBr fragment; UniProt P17213 88-101, looked up, fragment) | – | – | – | – | – | cpm ^3H-Heparin bound [3]: 6,262 ± 182 cpm
29 | C6: CNBr fragment of rBPI23, residues 171-196 (NSQVCEKVTNSVSSELQPYFQTLPVM; CNBr fragment; UniProt P17213 202-227, looked up, fragment) | – | – | – | – | – | cpm ^3H-Heparin bound [3]: 26,204 ± 844 cpm
30 | CIKISGKWKAQKRFLKC [BPI.65 (red.)] | – | – | – | 279.6 ng | 216 nM | bactericidal activity (in words) [1]: highly bactericidal; heparin binding capacity (in words) [3]: extremely high heparin capacity
31 | GTAALQKELKRIKIP [BPI.54] | b (no detectable activity up to 5 μg/well) | b (no detectable activity up to 5 μg/well) | – | 64.3 ng | 237 nM | bactericidal activity (in words) [1]: little or no bactericidal activity; heparin binding capacity (in words) [3]: low heparin binding capacity
